Converted amounts (≈) assume the structure as drawn. Like-named read-outs stand apart in the source and are kept apart here.
Assays:
P. aeruginosa (1051575) [1] = assay: Potentiation of erythromycin activity; type: cell-based, Pseudomonas aeruginosa; details: concentration of compound required with erythromycin 2 μg/mL
Procedure: (§1) This method requires the use of a 96-well plate: 100 μL of a liquid culture medium are placed in each well and then seeded with the microbial suspension prepared previously. The required volume to be seeded is calculated for an OD of 0.01, which corresponds to about 5×10^6 bacteria in each well. In this plate, the first line corresponds to a negative control (200 μL of sterile culture medium in each well), the second line corresponds to a positive control (100 μL of sterile culture medium+100 μL of the bacterial suspension), and the third line contains 192 μL of culture medium; 8 μL of compound of formula (I) to be tested are placed in each well. Thereafter, a cascade dilution is performed from this line. μL of a doxycycline solution (1 mg dissolved in 20 mL) are then added to each well of the lines 3 to 8 to obtain a final antibiotic concentration of 2 μg/mL. 92 μL of bacterial suspension are then added to lines 3 to 8. […] After 24 hours of incubation at 37° C., 40 μL of nitro tetrazolium iodide are added to each well to reveal the presence of live bacteria by staining the medium pink.
The procedure is identical to that indicated in Example 5 above. 8 μL of an antibiotic solution under consideration (1 mg dissolved in 20 mL) are added to obtain a final antibiotic concentration of 2 μg/mL instead of 8 μL of a doxycycline solution.
(§2) The results are given in table V. They indicate the concentration of compound of formula (I) required to be able to restore the activity of the antibiotic under consideration.

E. coli ATCC28922 = assay: MIC determination by microplate dilution, E. coli human strain; type: cell-based, Escherichia coli; details: Escherichia coli, ATCC28922, Gram-negative, Mueller-Hinton medium, 24 h, 37° C.
Procedure, shortened: (§3)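 Twofold dilution series of compounds (stock 5 mg/mL, DMSO/methanol 50/50) in Mueller-Hinton medium, seeded with bacteria at OD 0.01 from 24 h, 37 °C precultures. After 24 h at 37 °C under humid atmosphere, MIC derived from OD at 620 nm; run in duplicate.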

S. aureus ATCC25923 = assay: MIC determination by microplate dilution, S. aureus human strain; type: cell-based, Staphylococcus aureus; details: Staphylococcus aureus, ATCC25923, Gram-positive, Mueller-Hinton medium, 24 h, 37° C.
Procedure, shortened: as §3

E. faecalis ATCC29212 = assay: MIC determination by microplate dilution, E. faecalis human strain; type: cell-based, Enterococcus faecalis; details: Enterococcus faecalis, ATCC29212, Gram-positive, Mueller-Hinton medium, 24 h, 37° C.
Procedure, shortened: as §3

S. aureus (340) = assay: MIC determination by microplate dilution, S. aureus animal strain; type: cell-based, Staphylococcus aureus; details: Staphylococcus aureus, Gram-positive, Mueller-Hinton medium, 24 h, 37° C.
Procedure, shortened: as §3

E. coli (1956) = assay: MIC determination by microplate dilution, E. coli animal strain; type: cell-based, Escherichia coli; details: Escherichia coli, Gram-negative, Mueller-Hinton medium, 24 h, 37° C.
Procedure, shortened: as §3

P. aeruginosa (1051575) [2] = assay: Potentiation of ampicillin activity; type: cell-based, Pseudomonas aeruginosa; details: concentration of compound required with ampicillin 4 μg/mL
Procedure: as §1, with “Thereafter, a cascade dilution is performed from this line. μL of a doxycycline solution (1 mg dissolved in 20 mL) are then added to each well of the lines 3 to 8 to obtain a final antibiotic concentration of 2 μg/mL.” left out
(§4) The procedure is identical to that indicated in Example 5 above. […]
as §2

S. intermedius (1051997) = assay: MIC determination by microplate dilution, S. intermedius animal strain; type: cell-based, Staphylococcus intermedius; details: Staphylococcus intermedius, Gram-positive, Mueller-Hinton medium, 24 h, 37° C.
Procedure, shortened: as §3

P. aeruginosa ATCC27853 = assay: MIC determination by microplate dilution, P. aeruginosa human strain; type: cell-based, Pseudomonas aeruginosa; details: Pseudomonas aeruginosa, ATCC27853, Gram-negative, Mueller-Hinton medium, 24 h, 37° C.
Procedure, shortened: as §3

P. aeruginosa (1051575) [3] = assay: Potentiation of the doxycycline activity at 2 μg/mL; type: cell-based, Pseudomonas aeruginosa; details: for MIC - P. aeruginosa (1051575): content of compound of formula (I) to restore the doxycycline activity (at 2 μg/mL): in combination with doxycycline 2 μg/mL, 24 h, 37°
P. aeruginosa (1051575) [4] = assay: MIC determination by microplate dilution, P. aeruginosa animal strain; type: cell-based, Pseudomonas aeruginosa; details: Pseudomonas aeruginosa, Gram-negative, Mueller-Hinton medium, 24 h, 37° C.
Procedure, shortened: as §3

P. aeruginosa (1051575) [5] = assay: Potentiation of chloramphenicol activity; type: cell-based, Pseudomonas aeruginosa
Procedure: as §1, with “Thereafter, a cascade dilution is performed from this line. μL of a doxycycline solution (1 mg dissolved in 20 mL) are then added to each well of the lines 3 to 8 to obtain a final antibiotic concentration of 2 μg/mL.” left out
as §4, §2

CHO-K1 cells = assay: WST1 cytotoxicity test on CHO-K1 cells; type: cell-based, Chinese hamster; details: Cricetulus griseus
Procedure, shortened: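 Viability read-out: WST-1 tetrazolium cleavage by mitochondrial dehydrogenases, 20 min at 37 °C, A450. Compounds added at rising concentrations, in duplicate, to CHO-K1 cells for 24 h (37 °C, 5% CO2). IC50, the concentration halving viability, fitted by nonlinear regression.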

C. albicans = assay: Antifungal activity, cascade microdilution, C. albicans; type: cell-based, Candida albicans; details: Candida albicans, 24 h, read-out: IC50 (μg/mL) C. albicans
[6] = concentration of compound required with chloramphenicol 4 μg/mL
[7] = CHO-K1, read-out: IC50 (μg/mL) CHO

SMILES	MIC P. aeruginosa (1051575), compound + erythromycin (P. aeruginosa (1051575) [1]) [µg/mL]	MIC (E. coli ATCC28922) [µg/mL]	MIC (S. aureus ATCC25923) [µg/mL]	MIC (E. faecalis ATCC29212) [µg/mL]	MIC (S. aureus (340)) [µg/mL]	MIC (E. coli (1956)) [µg/mL]	MIC P. aeruginosa (1051575), compound + ampicillin (P. aeruginosa (1051575) [2]) [µg/mL]	MIC (S. intermedius (1051997)) [µg/mL]	MIC (P. aeruginosa ATCC27853) [µg/mL]	MIC - P. aeruginosa (1051575): content of compound of formula (I) to restore the doxycycline activity (at 2 μg/mL) (P. aeruginosa (1051575) [3]) [µg/mL]	MIC (P. aeruginosa (1051575) [4]) [µg/mL]	MIC P. aeruginosa (1051575), compound + chloramphenicol (P. aeruginosa (1051575) [5]; [6]) [µg/mL]	IC50 (CHO-K1 cells; CHO-K1, 24 h, read-out: IC50 (μg/mL) CHO) [µg/mL]	IC50 (CHO-K1 cells; [7]) [µg/mL]	IC50 (C. albicans) [µg/mL]	synergism with doxycycline (P. aeruginosa (1051575) [3]; administered with doxycycline at 2 μg/mL)	MIC P. aeruginosa (1051575), compound + chloramphenicol (P. aeruginosa (1051575) [5]; concentration of compound required with chloramphenicol 2 μg/mL) [µg/mL]
CC(C)OC(=O)CC[C@@H](C)[C@H]1CCC2C3C(C[C@H](O)[C@@]21C)[C@@]1(C)CC[C@H](NCCCN(C)CCCN)CC1C[C@H]3O (stereo partly drawn) [(36), isopropyl 3β-(bis(3-aminopropyl)methylamine)cholate]	58	58 (≈ 100 µM)	29 (≈ 50.2 µM)	58 (≈ 100 µM)	29 (≈ 50.2 µM)	58 (≈ 100 µM)	58	14 (≈ 24.2 µM)	58 (≈ 100 µM)	4	58 (≈ 100 µM)	8					
CC(C)OC(=O)CC[C@@H](C)[C@H]1CCC2C3C(CC[C@@]21C)[C@@]1(C)CC[C@H](NCCCNCCCN)CC1C[C@H]3O (stereo partly drawn) [(11), isopropyl 3β-norspermidinochenodeoxycholate]	28	14 (≈ 25.6 µM)	7 (≈ 12.8 µM)	3.5 (≈ 6.39 µM)	2 (≈ 3.65 µM)		56	2 (≈ 3.65 µM)		1	14 (≈ 25.6 µM)	2	140 (≈ 256 µM)	140 (≈ 256 µM)	4 (≈ 7.3 µM)	noteworthy synergism	
CC(C)OC(=O)CC[C@@H](C)[C@H]1CCC2C3CCC4C[C@@H](NCCCN(C)CCCN)CC[C@]4(C)C3CC[C@@]21C (stereo partly drawn) [(49), isopropyl 3β-(bis(3-aminopropyl)methylamine)lithocholate]	55				27 (≈ 49.5 µM)	27 (≈ 49.5 µM)		14 (≈ 25.6 µM)			27 (≈ 49.5 µM)						14
CC(C)OC(=O)CC[C@@H](C)[C@H]1CCC2C3C(CC[C@@]21C)[C@@]1(C)CC[C@H](NCCN(CCN)CCN)CC1C[C@H]3O (stereo partly drawn) [(40), isopropyl 3β-(tris(2-aminoethyl)amine)chenodeoxycholate]	56	14 (≈ 24.9 µM)	14 (≈ 24.9 µM)	14 (≈ 24.9 µM)	14 (≈ 24.9 µM)	28 (≈ 49.7 µM)	28	7 (≈ 12.4 µM)	56 (≈ 99.5 µM)	4		4		140 (≈ 249 µM)	7 (≈ 12.4 µM)		

Source: US20190255073A1, “ESTERS OF 3-POLYAMINE DERIVATIVES OF BILE ACIDS FOR THE TREATMENT OF INFECTIONS” (VIRBAC, priority 2016, published 2019)
